Here are results for one compound from publication PMC3904413, “Allosteric modulation of GABAA receptors by extracellular ATP” (Molecular Brain, 2014).

The experiment has as its system T1, GABAARs (native, cultured hippocampal neurons).
T1 construct: gene Gabra1
The following applies: GABA 100 μM by pressure ejection, -60 mV; allosteric potentiator; error ± 0.3 in Figure 1 legend.

With `Nc1ncnc2c1ncn2[C@@H]1O[C@H](COP(=O)(O)OP(=O)(O)OP(=O)(O)O)[C@@H](O)[C@H]1O` [ATP], the EC50 is 2.1 ± 0.2 mM.

Broadly, the EC50 is the concentration needed to bring the measured effect to its halfway point.
